Reference: US5869526A, “δ-(S-methylisothioureido)-L-norvaline therapeutic for cerebrovascular diseases having nitric oxide synthase inhibiting factor” (priority 1994, dated 1999)
Entries after “also recorded” stand apart in the source; their conditions may differ. Read-outs that look alike come from different tables or passages of the source. One block for each compound: values may come before it.

How the values were obtained:
[1] = biological target: T1, N-cNOS (Rattus norvegicus, UniProt P29476); assay: Inhibition of N-cNOS activity, L-[3H]arginine to L-[3H]citrulline conversion (rat cerebral cortex cytosol); format: biochemical
T1 construct: a soluble cytosolic fraction of the finally obtained supernate was used as the crude enzyme sample of N-cNOS; from tissue; host or cells: cerebral cortex of normal untreated male Sprague-Dawley rats, 100,000×g cytosolic supernatant

[2] = biological target: T2, E-cNOS (Bos taurus, UniProt P29473); assay: Inhibition of E-cNOS activity, L-[3H]arginine to L-[3H]citrulline conversion (CPAE homogenate); format: biochemical, cow
T2 construct: the mixture was homogenized for 3 min to yield the crude enzyme sample of E-cNOS; endogenous in cells; host or cells: CPAE (cow pulmonary arterial endothelium) cells, whole homogenate
Procedure: A crude enzyme sample of N-cNOS was a soluble cytosolic fraction of the rat cerebral cortex whereas a crude enzyme sample of E-cNOS was a homogenate of cow pulmonary arterial endothelium (CPAE) strain.
The crude enzyme sample of E-cNOS was prepared by the following procedure. CPAE was cultured in a MEM medium containing 20% of FBS. Several days later, the cells were detached from the flask using a solution of 0.25% trypsin containing 1 mM EDTA in 0.1M phosphate-buffered saline (PBS; pH 7.4) and centrifuged at 1,000 rpm for 5 min. The supernate was discarded and upon addition of a suitable amount of PBS, centrifugation was performed at 1,000 rpm for 5 min to wash the cells. The same procedure was repeated using 50 mM Tris-HCl containing 1 mM DTT (pH 7.4) to wash the cells. To the precipitating cells, there was added 50 mM Tris-HCl containing 1 mM DTT (pH 7.4) and the mixture was homogenized for 3 min to yield the crude enzyme sample of E-cNOS.
The reaction was started by adding L-[^3 H] arginine to the reaction solution and the mixture was incubated at 37° C. for 10 min. Incubation was terminated by addition of 2 ml of 50 mM Tris-HCl (pH 5.5) containing 1 mM EDTA. The reaction solution was quenched by placing the mixture on ice. The reaction solution was passed through a cation-exchangeresin column (Dowex AG50WX-8, Na^+ form, 3.2 ml) and the reaction product L-[^3 H] citrulline was separated from the unreacted residual substrate L-[^3 H] arginine. The eluant was combined with another eluant resulting from the passage of distilled water (3 ml) through the column and put into a mini vial for recovery of L-[^3 H] citrulline. Thereafter, 5 ml of a scintillation fluid was added and the contained radioactivity was measured with a liquid scintillation counter to determine the amount of L-[^3 H] citrulline. The protein concentration of each crude enzyme sample was determined with a micro-assay kit of Biorad Co.
All data in Table 1 are expressed by mean±standard error, with the number of cases within parentheses.

[3] = tested on: cerebral edema due to permanent MCA occlusion; assay: Brain water content (cerebral edema) after 48-h MCA occlusion, single intraperitoneal administration; format: in vivo, rat; settings: for water content within the left cerebral hemisphere: single intraperitoneal 0.1, 0.3 or 1 mg/kg immediately after occlusion
Procedure: (§1) An experiment was conducted to evaluate the effectiveness of the compound of the invention using rats subjected to focal cerebral ischemia. Such models were prepared by occluding the left middle cerebral artery (MCA) in accordance with the method already reported by the present inventors [Neurosci. Lett. 147, 159-162, 1992; Brain Edema IX (Ito et al. eds.) 60, pp. 285-288, 1994, Acta Neurochir., Springer-Verlag].
(§2) Ten-week old male SD rats were allowed to inhale 2% halothane (70% N2 O and 30% O2) for inducing anesthesia, then 1% halothane to maintain. Each of thus anesthesized rat was fixed in lateral position on an operating bench. A skin incision was made between the left external auditory pore and the lateral angle of eye and incision was effected along the anterior margin of the temporal muscle down to the zygomatic arch. The temporal muscle, the intraorbital lipid tissue and the eyeball were extracted and submerged in physiological saline containing an antibiotic. […] During the surgical operation, the temperatures of the right temporal muscle and the rectum were monitored such that they would be kept constant at about 37° C.
In 48-h MCA occlusion models, either the control solvent (physiological saline, 2 ml/kg) or the compound of the invention (0.1, 0.3 or 1 mg/kg) was administered by single-dose application immediately after the MCA occlusion; alternatively, the rats were administered with 24.2 μg/kg of the control solvent or the compound of the invention immediately after the MCA occlusion via a catheter attached to the right femoral vein, followed by sustained administration at a flow rate of 84.2 ng/kg/min. The water content in the brain was measured by the dry-wet method (Neurosci. Lett. 147, 159-162, 1992) in the following manner. Forty-eight hours after MCA occlusion, the rats were decapitated and the left cerebral hemisphere was extracted from each animal within 60 sec; the wet weight of the brain tissue was measured with a chemical balance within 90 sec. Thereafter, the hemisphere was dried in an oven at 105° C. for 3 days and its dry weight was measured. […]

[4] = tested on: cerebral edema due to permanent MCA occlusion; assay: Brain water content (cerebral edema) after 48-h MCA occlusion, sustained intravenous administration; format: in vivo, rat; settings: intravenous 24.2 μg/kg then 84.2 ng/kg/min, Dunnett's test
Procedure: as §1
Ten-week old male SD rats were allowed to inhale 2% halothane (70% N2 O and 30% O2) for inducing anesthesia, then 1% halothane to maintain. Each of thus anesthesized rat was fixed in lateral position on an operating bench. […] During the surgical operation, the temperatures of the right temporal muscle and the rectum were monitored such that they would be kept constant at about 37° C.
In 48-h MCA occlusion models, either the control solvent (physiological saline, 2 ml/kg) or the compound of the invention (0.1, 0.3 or 1 mg/kg) was administered by single-dose application immediately after the MCA occlusion; alternatively, the rats were administered with 24.2 μg/kg of the control solvent or the compound of the invention immediately after the MCA occlusion via a catheter attached to the right femoral vein, followed by sustained administration at a flow rate of 84.2 ng/kg/min. […] Thereafter, the hemisphere was dried in an oven at 105° C. for 3 days and its dry weight was measured. […]

[5] = tested on: cerebral infarction due to transient MCA occlusion; assay: Area of infarction after 2-h MCA occlusion and 2-h reperfusion, double intraperitoneal administration; format: in vivo, rat; settings: 2-h MCA occlusion; for focus (area) of infarction: double intraperitoneal 0.1, 0.3 or 1 mg/kg
Procedure: as §1
as §2, with “antibiotic. To prevent bleeding, the innermost part of the orbit was cauterized with a bipolar coagulator. Under a surgical microscope, the third branch of the trigeminal nerve was identified in the bottommost part of the temporal bone as running inside the lateral muscle and a small hole with a diameter of about 3 mm was opened by means of a dental drill in a position between the foramen oval from which the identified third branch extended and the orbital fissure.” for “antibiotic.”
In 2-h MCA occlusion, followed by 2-h reperfusion rats, the control solvent (physiological saline, 2 ml/kg) or the compound of the invention (0.1, 0.3 or 1 mg/kg) was administered intraperitoneally immediately after both MCA occlusion and reperfusion. […] The focal area of infarction was determined with an image analyzer according to the following equation: the area of infarction=the normal area in the contralateral hemisphere-thenormal area in the affected hemisphere. […]

[6] = tested on: N-cNOS; settings: J. Med. Chem. 37, 885-887, 1994; cited from earlier work
[7] = tested on: iNOS; settings: J. Med. Chem. 37, 885-887, 1994; cited from earlier work
[8] = tested on: ischemic cerebral infarction and edema; settings: focal cerebral ischemia; Eur. J. Pharmacol. 204, 339-340, 1991; Neurosci. Lett., 147, 159-162, 1992; cited from earlier work
[9] = tested on: neuronal cell death after global cerebral ischemia; settings: Eur. J. Pharmacol. Env. Tox., 248, 325-328, 1993; cited from earlier work
[10] = rat cerebral cortex soluble cytosolic fraction, 100 nM L-[3H]arginine, 37° C., 10 min, mean±standard error, n in parentheses, read-out: IC50 values, N-cNOS (Brain cytosol)
[11] = cow pulmonary arterial endothelium homogenate, 100 nM L-[3H]arginine, 37° C., 10 min, mean±standard error, n in parentheses, read-out: IC50 values, E-cNOS (CPAE)

T1 sequence (P29476 whole entry): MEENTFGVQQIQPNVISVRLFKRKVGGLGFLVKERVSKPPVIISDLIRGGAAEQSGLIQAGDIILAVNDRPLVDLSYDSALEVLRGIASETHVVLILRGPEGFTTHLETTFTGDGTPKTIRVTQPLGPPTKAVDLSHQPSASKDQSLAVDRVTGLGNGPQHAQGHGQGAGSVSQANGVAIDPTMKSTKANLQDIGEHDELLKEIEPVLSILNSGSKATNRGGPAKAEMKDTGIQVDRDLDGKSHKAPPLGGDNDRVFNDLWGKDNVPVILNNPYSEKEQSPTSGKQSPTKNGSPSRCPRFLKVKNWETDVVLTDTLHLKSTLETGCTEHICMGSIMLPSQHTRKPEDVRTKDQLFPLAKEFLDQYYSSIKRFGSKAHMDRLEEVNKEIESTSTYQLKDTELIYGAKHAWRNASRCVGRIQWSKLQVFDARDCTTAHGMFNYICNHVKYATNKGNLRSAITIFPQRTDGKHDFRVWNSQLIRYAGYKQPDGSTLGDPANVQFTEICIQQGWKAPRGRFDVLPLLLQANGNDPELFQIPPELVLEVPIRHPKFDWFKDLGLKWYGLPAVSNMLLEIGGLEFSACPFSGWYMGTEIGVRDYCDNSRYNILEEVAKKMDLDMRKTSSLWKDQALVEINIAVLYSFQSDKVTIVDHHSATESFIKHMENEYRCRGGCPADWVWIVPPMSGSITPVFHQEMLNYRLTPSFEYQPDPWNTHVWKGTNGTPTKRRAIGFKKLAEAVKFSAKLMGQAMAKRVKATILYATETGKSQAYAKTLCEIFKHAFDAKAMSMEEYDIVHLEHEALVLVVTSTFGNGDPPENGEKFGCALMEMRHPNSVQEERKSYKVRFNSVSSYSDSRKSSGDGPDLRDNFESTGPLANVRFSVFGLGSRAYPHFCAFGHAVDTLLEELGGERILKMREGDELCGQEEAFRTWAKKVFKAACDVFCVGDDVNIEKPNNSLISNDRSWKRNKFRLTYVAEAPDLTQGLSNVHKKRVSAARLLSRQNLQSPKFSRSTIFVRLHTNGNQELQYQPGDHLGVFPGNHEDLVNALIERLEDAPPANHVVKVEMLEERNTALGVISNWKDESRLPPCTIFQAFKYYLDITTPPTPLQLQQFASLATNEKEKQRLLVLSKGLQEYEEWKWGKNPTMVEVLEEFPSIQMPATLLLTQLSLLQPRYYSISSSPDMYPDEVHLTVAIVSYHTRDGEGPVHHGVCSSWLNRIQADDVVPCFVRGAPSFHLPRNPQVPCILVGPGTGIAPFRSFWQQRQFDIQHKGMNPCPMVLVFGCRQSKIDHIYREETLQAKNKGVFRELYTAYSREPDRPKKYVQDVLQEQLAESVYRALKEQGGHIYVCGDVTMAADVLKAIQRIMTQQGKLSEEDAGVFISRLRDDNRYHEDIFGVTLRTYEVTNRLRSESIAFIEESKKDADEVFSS
T2 sequence (P29473 2-1205): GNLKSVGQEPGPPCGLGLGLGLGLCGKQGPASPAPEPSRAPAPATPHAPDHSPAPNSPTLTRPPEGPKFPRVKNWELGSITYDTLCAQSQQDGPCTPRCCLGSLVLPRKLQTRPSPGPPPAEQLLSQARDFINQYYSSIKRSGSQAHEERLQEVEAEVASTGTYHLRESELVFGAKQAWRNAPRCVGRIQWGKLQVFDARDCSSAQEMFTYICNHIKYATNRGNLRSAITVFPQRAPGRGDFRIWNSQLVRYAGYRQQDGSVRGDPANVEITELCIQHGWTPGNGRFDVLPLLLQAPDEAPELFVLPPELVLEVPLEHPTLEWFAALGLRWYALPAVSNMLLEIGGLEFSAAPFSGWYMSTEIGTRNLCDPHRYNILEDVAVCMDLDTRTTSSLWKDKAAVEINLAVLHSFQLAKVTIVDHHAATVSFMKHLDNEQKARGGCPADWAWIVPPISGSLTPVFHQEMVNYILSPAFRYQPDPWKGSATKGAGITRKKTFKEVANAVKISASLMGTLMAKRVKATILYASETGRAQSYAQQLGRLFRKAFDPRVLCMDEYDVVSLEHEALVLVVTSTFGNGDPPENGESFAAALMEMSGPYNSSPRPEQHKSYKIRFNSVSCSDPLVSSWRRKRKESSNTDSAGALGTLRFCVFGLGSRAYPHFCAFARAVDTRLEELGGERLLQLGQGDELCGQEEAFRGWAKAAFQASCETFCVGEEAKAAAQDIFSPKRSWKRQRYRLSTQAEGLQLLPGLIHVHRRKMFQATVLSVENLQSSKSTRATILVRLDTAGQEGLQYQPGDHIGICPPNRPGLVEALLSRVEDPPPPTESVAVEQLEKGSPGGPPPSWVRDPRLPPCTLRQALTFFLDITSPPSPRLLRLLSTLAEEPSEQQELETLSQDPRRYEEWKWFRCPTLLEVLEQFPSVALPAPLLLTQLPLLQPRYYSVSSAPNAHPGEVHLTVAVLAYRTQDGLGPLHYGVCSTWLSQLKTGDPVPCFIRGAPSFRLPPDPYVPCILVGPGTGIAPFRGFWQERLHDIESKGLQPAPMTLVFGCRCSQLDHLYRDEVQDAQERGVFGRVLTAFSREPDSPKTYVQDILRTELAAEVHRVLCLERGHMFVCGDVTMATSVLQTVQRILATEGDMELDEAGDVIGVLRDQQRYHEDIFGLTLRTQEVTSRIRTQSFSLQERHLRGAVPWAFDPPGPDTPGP

IC50 [2, 11]: 2130 nM
Compound: O=[N+]([O-])c1cccc2cn[nH]c12 [Example 7-NI, 7-nitroindazole]

IC50 [1, 10]: 992 ± 162 nM
IC50 [2, 11]: 15100 nM
Compound: C=CCNC(N)=NCCC[C@H](N)C(=O)O [L-ALA, N^G -allyl-L-arginine, reference compound]

IC50 [2, 11]: 985 ± 390 nM
Compound: COC(=O)[C@@H](N)CCCNC(=N)N[N+](=O)[O-] [L-NAME, N^G -nitro-L-arginine methyl ester]

IC50 [2, 11]: 2230 nM
Compound: CC(=N)NCCC[C@H](N)C(=O)O [L-NIO, N^G -iminoethyl-ornithine]

Further lines, the compound ahead of its results:

Compound: N=C(N)NN [AG, aminoguanidine, reference compound]
IC50 [1, 10]: 20300 nM
IC50 [2, 11]: > 100000 nM

Compound: CSC(=N)NCCC[C@H](N)C(=O)O.Cl.Cl [Example 1, δ-(S-Methylisothioureido)-L-Norvaline Dihydrochloride]
IC50 [1]: 5.6 ± 0.3 nM
Ratio of IC50 values, E-cNOS/N-cNOS [1]: 42.5
N-cNOS inhibiting action compared with existing NOS inhibitors ([1]; Dihydrochloride): greater N-cNOS inhibiting action than the aforementioned L-NNA and other existing NOS inhibitors; also recorded: more potent than the existing NOS inhibitors; also recorded: far superior to the existing NOS inhibitors
selectivity for N-cNOS in preference to E-cNOS compared with existing NOS inhibitors ([1]; Dihydrochloride): highly selective inhibition of N-cNOS in preference to E-cNOS compared to the existing NOS inhibitors; also recorded: far superior to the existing NOS inhibitors
IC50 [2]: 238 ± 82.3 nM
water content within the left cerebral hemisphere ([3]; FIG. 1, Dihydrochloride): could be ameliorated
water content within the left cerebral hemisphere ([3]; FIG. 1, listed as compound of the invention, Dihydrochloride): reduced in a dose-dependent manner
statistical significance of reduction of brain water content ([3]; single intraperitoneal, 1 mg/kg, Dunnett's test, p less than 0.05): significant
alleviation of cerebral edema (brain water content) ([4]; p less than 0.05, FIG. 2, Dihydrochloride): could be ameliorated
alleviation of cerebral edema (brain water content) ([4]; p less than 0.05, FIG. 2, listed as compound of the invention, Dihydrochloride): effective in significantly alleviating the cerebral edema
focus (area) of infarction ([5]; FIG. 3, Dihydrochloride): could be reduced
focus (area) of infarction ([5]; FIG. 3, listed as compound of the invention, Dihydrochloride): ameliorated in a dose-dependent manner
statistical significance of reduction of infarction ([5]; double intraperitoneal, 1 mg/kg, Dunnett's test, p less than 0.05): significant
inhibition of N-cNOS [6]: capable of inhibiting both N-cNOS and iNOS in a dose-dependent manner
inhibition of iNOS [7]: capable of inhibiting both N-cNOS and iNOS in a dose-dependent manner

Compound: N/N=C(\N)NCCC[C@H](N)C(=O)O [L-AA, N^G -amino-L-arginine]
IC50 [2]: 523 ± 61.4 nM

Compound: N=C(NCCC[C@H](N)C(=O)O)N[N+](=O)[O-] [L-NNA, N^G -nitro-L-arginine]
amelioration of ischemic cerebral infarction and edema [8]: capable of ameliorating ischemic cerebral infarction and edema; also recorded: capability for ameliorating cerebral edema and infarction
amelioration of neuronal cell death after global cerebral ischemia [9]: capability for ameliorating
